This note sets out measurements from ChEMBL document CHEMBL6127139, “Lysine-Targeted Covalent Inhibitors of PI3Kδ Synthesis and Screening by In Situ Interaction Upgradation” (J Med Chem, 2024).

For orientation: GI50 means the concentration giving 50% growth inhibition. A high value points to less potent growth inhibition.

The structures appear in SMILES notation. Active and inactive are the calls of the source. The calls are words filed in the database; no cut-off is given here.

Test [1] in a line: Growth inhibition of PI3Kdelta-overexpressing human SU-DHL-6 cells incubated for 72 hrs by MTT assay. The test is classed as functional.
Test [2] in a line: Growth inhibition of PI3Kdelta-overexpressing human Pfeiffer cells incubated for 72 hrs by MTT assay. In kind it is functional. Background: Formazan colour is commonly taken as a measure of viable cells.
A further test has as its system HCT-116. Description: Growth inhibition of human HCT-116 cells incubated for 72 hrs by MTT assay. The test is classed as functional.
Another test has as its system MCF7. The test is described as follows: Growth inhibition of human MCF7 cells incubated for 72 hrs by MTT assay. The test is classed as functional.
A further test relates to Raji. The test is described as follows: Growth inhibition of human Raji cells incubated for 72 hrs by MTT assay. The test is classed as functional.
The test system of test [3] is SU-DHL-6. The test is described as follows: Antiproliferative activity against human SU-DHL-6 cells assessed as inhibition of cell viability preincubated for 12 hrs followed by compound washout and measured after 60 hrs by MTT assay. The test is classed as functional, cell-based.
The subject of test [4] is SU-DHL-6. Description: Induction of apoptosis in human SU-DHL-6 cells assessed as viable cells at 10 uM incubated for 48 hrs by Annexin V-FITC/PI staining based flow cytometric analysis (reference value: 89.81 %). As to conditions: read-out: Activity. The test is classed as functional. Background: In flow cytometry, cells or beads pass a laser one at a time.
The subject of test [5] is SU-DHL-6. Description: Inhibition of AKT phosphorylation in human SU-DHL-6 cells preincubated for 12 hrs followed by compound washout and measured after 24 hrs by Western blot analysis. The test is classed as cell-based. A general note: A western blot detects proteins with antibodies after separation by electrophoresis.
Test [6] concerns SU-DHL-6. The test is described as follows: Inhibition of AKT phosphorylation in human SU-DHL-6 cells preincubated for 12 hrs followed by compound washout and measured upto 72 hrs by Western blot analysis. The test is classed as cell-based.
Test [7] has as its system SU-DHL-6. The test is described as follows: Induction of apoptosis in human SU-DHL-6 cells assessed as viable cells at 1 uM incubated for 48 hrs by Annexin V-FITC/PI staining based flow cytometric analysis (reference value: 89.81 %). The following applies: read-out: Activity. The test is classed as functional.
The subject of test [8] is SU-DHL-6. The test is described as follows: Induction of apoptosis in human SU-DHL-6 cells assessed as early apoptotic cells at 1 uM incubated for 48 hrs by Annexin V-FITC/PI staining based flow cytometric analysis (reference value: 5.02 %). In kind it is functional.
Test [9] deals with SU-DHL-6. The test is described as follows: Induction of apoptosis in human SU-DHL-6 cells assessed as late apoptotic cells at 1 uM incubated for 48 hrs by Annexin V-FITC/PI staining based flow cytometric analysis (reference value: 4.12 %). The test is classed as functional.
The subject of test [10] is SU-DHL-6. The test is described as follows: Induction of apoptosis in human SU-DHL-6 cells assessed as necrotic cells at 1 uM incubated for 48 hrs by Annexin V-FITC/PI staining based flow cytometric analysis (reference value: 1.05 %). In kind it is functional.
Test [11] has as its system SU-DHL-6. The test is described as follows: Induction of apoptosis in human SU-DHL-6 cells assessed as early apoptotic cells at 10 uM incubated for 48 hrs by Annexin V-FITC/PI staining based flow cytometric analysis (reference value: 5.02 %). In kind it is functional.
In test [12] the test system is SU-DHL-6. Description: Induction of apoptosis in human SU-DHL-6 cells assessed as late apoptotic cells at 10 uM incubated for 48 hrs by Annexin V-FITC/PI staining based flow cytometric analysis (reference value: 4.12 %). In kind it is functional.
Test [13] relates to SU-DHL-6. Description: Induction of apoptosis in human SU-DHL-6 cells assessed as necrotic cells at 10 uM incubated for 48 hrs by Annexin V-FITC/PI staining based flow cytometric analysis (reference value: 1.05 %). In kind it is functional.
The test system of test [14] is SU-DHL-6. The test is described as follows: Antitumor activity against human SU-DHL-6 cells xenografted in male nude mouse assessed as tumor growth inhibition at 5 mg/kg/day, po administered for 14 days relative to control. In kind it is functional. As to conditions: SU-DHL-6, 336 h, time 14 day, read-out: TGI.

As to `CC[C@H](Nc1ncnc2[nH]cnc12)c1nc2cccc(F)c2c(=O)n1-c1ccccc1` [IDELALISIB], the GI50 is 200 nM in test [1]; 8.33 µM in test [2]; more than 10 µM in the test on HCT-116; more than 10 µM in the test on MCF7; more than 10 µM with Raji. Besides, the outcome in the test on SU-DHL-6 [3] was inactive. In addition, the viability at 10 µM in the test with SU-DHL-6 [4] is 79.4%. Also, the inhibition result in the test with SU-DHL-6 [5] and in the test on SU-DHL-6 [6] was “inactive” throughout. Moreover, the viability at 1 µM in the test on SU-DHL-6 [7] was 87%. Besides, the Activity is given as 6.76% in the test with SU-DHL-6 [8]; 3.46% in the test with SU-DHL-6 [9]; 0.8% in the test on SU-DHL-6 [10]; 13.29% in the test on SU-DHL-6 [11]; 6.75% in the test with SU-DHL-6 [12]; 0.6% in the test on SU-DHL-6 [13]. The inhibition in vivo at 5 mg/kg/day with SU-DHL-6 [14] is 50%.
